Tests used:
[1] = tested on: adjuvant-induced arthritis; assay: Adjuvant-induced arthritis model, Randall Selitto assay (mechanical hyperalgesia); type: in vivo, rat; conditions: Lewis rats, dosed day 0 to day 28: LJP1207 30 mg/kg po qd, MTX 0.25 mg/kg ip 3 times per week; assessed day 7, 14, 18, 21, 25, 28; FIG. 2
Excerpt: Rats injected into the hindpaw with a mixture of Mycobacterium butirricum emulsified in light mineral oil develop a severe polyarthritis which shares some features in common with human rheumatoid arthritis (RA), such as swelling of the extremities, cartilage degradation, loss of joint function and lymphocyte infiltration into diseased joints. This model was originally described more than 60 years ago (Pearson et al., Arthritis and Rheumatology. 1959. 2(5), 440-459) and is still the most widely used assay to identify chemical agents having a potential therapeutic efficacy in RA. […] Furthermore, this is a well-established model for inflammatory pain, especially longer-term (i.e. chronic) inflammatory pain.
Male Lewis rats (220-230 g) were housed in propylene cages with food and water ad libitum. The light cycle was automatically controlled and the room temperature thermostatically regulated to 21±1° C. Prior to the start of the experiment animals were housed in these conditions for 6-8 days.
Rats were anaesthetized before induction of CFA and then were treated orally starting from day 0 to day 28 with LJP1207 (30 mg/kg po qd) or methotrexate (MTX, 0.25 mg/kg ip 3 times per week). Control rats received the vehicle e.g. PBS starting from day 0. […] The development of arthritis was assessed at day 7, 14, 18, 21, 25 and 28. […]

human SSAO = target: T1, human SSAO (Homo sapiens, UniProt Q16853); conditions: Salter-Cid et al., J Pharmacol Exp Ther. 2005; read-out: human SSAO, IC(50); cited from earlier work
T1 sequence (Q16853 1-763): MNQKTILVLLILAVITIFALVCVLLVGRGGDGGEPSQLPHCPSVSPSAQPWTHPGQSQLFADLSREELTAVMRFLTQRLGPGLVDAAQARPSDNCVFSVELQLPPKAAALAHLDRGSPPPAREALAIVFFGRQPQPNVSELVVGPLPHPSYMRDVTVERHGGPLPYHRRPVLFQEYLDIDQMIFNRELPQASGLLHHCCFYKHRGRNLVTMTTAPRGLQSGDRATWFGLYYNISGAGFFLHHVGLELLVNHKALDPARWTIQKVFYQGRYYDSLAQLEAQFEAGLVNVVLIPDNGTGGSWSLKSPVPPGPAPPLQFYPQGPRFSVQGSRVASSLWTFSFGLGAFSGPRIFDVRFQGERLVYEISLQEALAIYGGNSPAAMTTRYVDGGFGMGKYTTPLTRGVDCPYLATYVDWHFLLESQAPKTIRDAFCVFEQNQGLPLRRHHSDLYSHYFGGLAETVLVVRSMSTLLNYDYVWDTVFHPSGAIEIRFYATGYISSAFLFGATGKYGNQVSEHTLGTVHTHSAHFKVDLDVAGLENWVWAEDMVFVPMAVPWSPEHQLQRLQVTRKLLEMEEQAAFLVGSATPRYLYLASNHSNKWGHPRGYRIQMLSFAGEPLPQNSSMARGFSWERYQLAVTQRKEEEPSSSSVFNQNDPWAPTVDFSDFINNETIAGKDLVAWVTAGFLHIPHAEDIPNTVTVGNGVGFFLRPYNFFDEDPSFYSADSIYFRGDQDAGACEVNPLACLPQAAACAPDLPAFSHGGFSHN

human VAP-1 (SSAO) = target: T2, human VAP-1 (SSAO) (Homo sapiens, UniProt Q16853); assay: VAP-1 Inhibition Assay (benzylamine substrate, HRP-coupled hydrogen peroxide or 14C benzaldehyde detection); type: biochemical; conditions: purified recombinant human VAP-1 (SSAO), room temperature
T2 construct: made in house
T2 sequence (Q16853 29-763 limits assumed): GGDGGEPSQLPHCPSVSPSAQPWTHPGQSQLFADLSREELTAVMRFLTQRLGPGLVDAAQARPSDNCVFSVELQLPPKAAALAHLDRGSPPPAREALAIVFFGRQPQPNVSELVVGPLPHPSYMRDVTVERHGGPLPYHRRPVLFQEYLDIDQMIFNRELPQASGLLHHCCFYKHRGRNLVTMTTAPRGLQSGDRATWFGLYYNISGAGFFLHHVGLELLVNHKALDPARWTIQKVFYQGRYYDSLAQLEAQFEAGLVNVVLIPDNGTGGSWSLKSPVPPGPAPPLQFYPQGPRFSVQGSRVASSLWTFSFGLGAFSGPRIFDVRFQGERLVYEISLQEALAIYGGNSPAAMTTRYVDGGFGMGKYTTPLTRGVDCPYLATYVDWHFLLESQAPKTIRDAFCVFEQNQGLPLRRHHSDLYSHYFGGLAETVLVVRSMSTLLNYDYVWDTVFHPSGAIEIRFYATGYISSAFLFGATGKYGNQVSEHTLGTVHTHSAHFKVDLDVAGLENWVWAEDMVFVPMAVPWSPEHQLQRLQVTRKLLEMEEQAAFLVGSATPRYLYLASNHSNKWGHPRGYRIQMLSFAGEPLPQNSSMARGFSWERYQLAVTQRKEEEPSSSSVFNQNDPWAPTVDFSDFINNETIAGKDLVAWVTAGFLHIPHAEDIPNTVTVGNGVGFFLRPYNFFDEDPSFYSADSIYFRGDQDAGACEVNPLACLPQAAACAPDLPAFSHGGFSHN
Experimental: This assay is performed at room temperature with purified recombinantly expressed human VAP-1 (SSAO). Enzyme was prepared essentially as described in Ohman et al. (Protein Expression and Purification 46 (2006) 321-331). The enzyme activity is assayed with benzylamine as substrate by measuring either benzaldehyde production, using 14C-labeled substrate, or by utilizing the production of hydrogen peroxide in a horseradish peroxidise (HRP) coupled reaction. Briefly, test compounds are dissolved in dimethyl sulfoxide (DMSO) to a concentration of 10 mM. […]
Hydrogen peroxide detection: In a horseradish peroxidise (HRP) coupled reaction, hydrogen peroxide oxidation of 10-acetyl-3,7-dihydroxyphenoxazine produces resorufin, which is a highly fluorescent compound (Zhout and Panchuk-Voloshina. Analytical Biochemistry 253 (1997) 169-174; Amplex® Red Hydrogen Peroxide/peroxidise Assay kit, Invitrogen A22188). […] Benzylarnine concentration is fixed at a concentration corresponding to the Michaelis constant, determined using standard procedures. Fluorescence intensity is then measured at several time points during 1-2 hours, exciting at 544 nm and reading the emission at 590 nm. […] The inhibition is measured as % decrease of the signal compared to a control without inhibitor (only diluted DMSO). […]

SMILES	inhibition of paw withdrawal (nociceptive threshold, Randall Selitto) [1]	IC50 (human SSAO)	IC50 (human VAP-1 (SSAO))
CN(Cc1cnc2nc(N)nc(N)c2n1)c1ccc(C(=O)N[C@@H](CCC(=O)O)C(=O)O)cc1 [MTX, methotrexate]	significant inhibition starting at day 18 up to day 28	–	–
C=C(CNN)c1ccccc1.Cl [LJP1207, N′-(2-phenyl-allyl)-hydrazine hydrochloride]	significant inhibition at day 21, 25 and 28	17 nM	–
CC(C)[C@H]1c2[nH]cnc2CCN1C(=O)O[C@H]1CCOC1 [Compound 1, (3S)-Tetrahydrofuran-3-yl (4S)-4-isopropyl-1,4,6,7-tetrahydro-5H-Imidazo[4,5-c]pyridine-5-carboxylate]	–	–	37 nM
